What all share (assay type): functional, cell-based
One experiment relates to Colon 26. Nature of the experiment: In vitro cytotoxicity causing 50% growth inhibition was determined against C26-10 (murine colon carcinoma) cell line. To be noted: Mus musculus.
Another experiment relates to A2780. Nature of the experiment: In vitro cytotoxicity causing 50% growth inhibition was determined against […] (human ovarian cancer)cell line.
For experiment [1], the system named is Lewis lung carcinoma cell line. Nature of the experiment: In vitro cytotoxicity causing 50% growth inhibition was determined against LL (murine non small cell lung cancer) cell line. The settings on record: Mus musculus.
A further experiment deals with WiDr. Briefly: In vitro cytotoxicity causing 50% growth inhibition was determined against WiDr (human colon carcinoma) cell line.
For a further experiment, the system named is H322. Nature of the experiment: In vitro cytotoxicity causing 50% growth inhibition was determined against H322 (human non small cell lung cancer) cells. The settings on record: NCI-H322.
In the next experiment the test system is UMSCC22B. Briefly: In vitro cytotoxicity causing 50% growth inhibition was determined against 22B (human head and neck squamous) cell line.

SMILES strings stand for the structures.

Three compounds from ChEMBL document CHEMBL1134004, “Synthesis and in vitro cytotoxicity of novel long chain busulphan analogues” (Bioorg Med Chem Lett, 2001) can be followed below.

The IC50 is the concentration that inhibits the measured activity by half. On to `CCCCCCCCCCCCCCC(COS(C)(=O)=O)OS(C)(=O)=O` (stereo not drawn), for which the half-maximal inhibitory concentration (IC50) in the experiment with Colon 26 was 31 µM; in the experiment on A2780, 45.5 µM; in experiment [1], 28.4 µM; with WiDr it was 25.6 µM; with H322 it was 59.7 µM; in the experiment on UMSCC22B, 46.5 µM.

Regarding `CS(=O)(=O)OCCCCOS(C)(=O)=O` [BUSULFAN], the IC50 is 92.5 µM with Colon 26; more than 100 µM with A2780; more than 100 µM in experiment [1]; more than 100 µM with WiDr; more than 100 µM in the experiment on H322; more than 100 µM with UMSCC22B.

Turning to `CCCCCCCCCCCCCCC(CCOS(C)(=O)=O)COS(C)(=O)=O` (stereo not drawn), the IC50 in the experiment with Colon 26 turned out to be 26.3 µM; in the experiment with A2780, 25.9 µM; in experiment [1] it was 20.8 µM; with WiDr, 24.9 µM; in the experiment on H322, 25.1 µM; in the experiment on UMSCC22B, 26.4 µM.
